Assay [1] addresses T1, Cathepsin B from human placenta (Homo sapiens, UniProt P07858).
T1 construct: Cathepsin B from human placenta, obtained from Sigma; purchased Sigma; host or cells: human placenta (tissue)
The assay can be described thus: Inhibition of cathepsin B, Z-Arg-Arg-AMC fluorescence progress curves. The format is biochemical. Conditions: for k/KI (kirr/KI): values without asterisk, 25° C., pH 6.2. A digest of the protocol:
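Human placental enzyme (~10 nM) in 50 mM phosphate pH 6.2 with 2.5 mM DTT and 2.5 mM EDTA, 50 μM Z-Arg-Arg-AMC, inhibitors 30-0.001 μM, 25° C. AMC fluorescence (ex 380/em 460 nm) progress curves fitted for kobs; kobs/[I] reported, with kirr, KI and kirr/KI substrate-corrected for selected compounds.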

The target in a further assay is T2, Cloned cathepsin S (Homo sapiens, UniProt P25774).
T2 construct: made in house
T2 sequence (P25774 115-331): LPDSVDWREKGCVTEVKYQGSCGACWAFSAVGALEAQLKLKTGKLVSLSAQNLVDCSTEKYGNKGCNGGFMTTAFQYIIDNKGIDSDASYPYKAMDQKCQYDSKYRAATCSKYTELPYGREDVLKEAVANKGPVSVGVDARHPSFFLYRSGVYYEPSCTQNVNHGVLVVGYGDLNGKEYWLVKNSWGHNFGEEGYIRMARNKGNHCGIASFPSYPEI
As to the kind of experiment: Inhibition of cathepsin S, Z-Val-Val-Arg-AMC fluorescence progress curves. Conditions: for Ki: corrected for substrate; for k/KI (kirr/KI): values without asterisk, 25° C., pH 6.5. The format is biochemical. A digest of the protocol: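 Fluorescence (380 nm excitation, 460 nm emission) was followed after adding sub-nM enzyme to pH 6.5 phosphate buffer with DTT, EDTA, Triton, 10 μM Z-VVR-AMC and 30-0.001 μM inhibitor at 25 °C. Fitted kobs values gave apparent kobs/[I]; for some, double-reciprocal plots gave kirr, KI and kirr/KI, KI corrected by 1+[S]/Km.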

Another assay has as its target cruzain, from T. cruzi (Trypanosoma cruzi, UniProt P25779). As to the kind of experiment: Inhibition of cruzain, as for cathepsin L. The format is biochemical. Conditions: for k/KI (kirr/KI): values without asterisk. A digest of the protocol:
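Run as for cathepsin L with 1 nM cruzain in 50 mM phosphate pH […], 2.5 mM DTT, 2.5 mM EDTA, 5 μM Z-Phe-Arg-AMC, at 25 °C, inhibitors 30-0.001 μM; fluorescence (ex 380/em 460 nm) followed continuously. kobs fitted from progress curves and kobs/[I] reported; selected compounds gave kirr, KI, kirr/KI, with KI corrected by (1+[S]/Km).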

For assay [2], the system named is human malarial parasite Plasmodium falciparum. As to the kind of experiment: In vitro protease activity of malarial parasite, substrate Z-Phe-Arg-AMC. The format is biochemical. Conditions: cells printed in nM; read-out: P. falciparum IC50 (human). An excerpt:
The following table summarizes the comparative IC50 values for selected cysteine protease inhibitors against the human malarial parasite Plasmodium falciparum and the mouse malarial parasite Plasmodium vinckei. The substrate used to measure in vitro protease activity was Z-Phe-Arg-AMC.

For a further assay, the system named is Female Lewis rats. The assay can be described thus: Mycobacterium butyricum induced arthritis in rats, compound in chow, 28 days. The format is in vivo, rat. Here is the method: At day zero, Female Lewis rats (5/group), 5 weeks old, were given intradermal injection into the base of the tail of Mycobacterium butyricum in 0.1 ml of light mineral oil. The animals were provided Teklad (4%) rat chow mixed with (treated groups) or without compound (control group) and water ad libilum. The compounds used were Mu-Phe-HphVSPh, Mu-Leu-HphVSPh, Mu-Tyr-HphVSPh, Mu-Phe-Lys(ε-Z)VSPh, Mu-Phe-LysVSPh-HBr. The compounds were given to three groups at 3, 10, and 30 mg/kg/day, respectively. The following parameters were noted: biweekly weights and biweekly joint evaluations by the following scoring system: paw swelling 0=no edema, 1=slight edema of small digital joints, 2=edema of the digital joints and foot pad, 3=gross edema of the entire foot pad below that ankle or elbow, 4=gross edema of the entire foot pad including the ankle and elbow joint Erythema was scored as: 0=normal, 1=pink, 2=red, 3=deep violaceous. The evaluators were blinded as to treatment groups.
After 28 days the animals were killed and the hind paws and knees were removed and fixed in 4% paraformaldehyde. […] Joint histopathology scores were calculated by the following method: two sections of each joint were read for synovial cell proliferation, cartilage erosion, bone erosion, fibroproliferative pannus, diffuse inflammatory synovitis, and synovial vasculitis: 0=normal, 1=mild, 2=moderate, 3=and severe. […]

The source of these data is US6287840A (Axys Pharmaceuticals, Inc., priority 1999, dated 2001).

Several values for one entry are separate records, joined by “and”; a condition that tells them apart may be missing. Identical values can stand only once. Like-named read-outs stand apart in the source and are kept apart here.

Sequence of cruzain, from T. cruzi (P25779 123-337 limits assumed): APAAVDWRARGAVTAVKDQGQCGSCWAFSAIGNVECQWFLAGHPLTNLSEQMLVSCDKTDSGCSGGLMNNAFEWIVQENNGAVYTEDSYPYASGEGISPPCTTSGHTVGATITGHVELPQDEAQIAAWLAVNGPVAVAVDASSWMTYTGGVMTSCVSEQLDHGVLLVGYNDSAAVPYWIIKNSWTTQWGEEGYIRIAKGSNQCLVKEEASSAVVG

In the case of `CC(C)C[C@H](NC(=O)N1CCOCC1)C(=O)N[C@H](/C=C/S(=O)(=O)c1ccccc1)CCc1ccccc1` [Mu-Leu-HphVSPh, (S)-(E)-3-(4-morpholinecarbonylleucyl)amino-5-phenyl-1-phenylsulfonyl-1-pentene], the “k/KI (kirr/KI)” value in assay [1] was 4250 M⁻¹ s⁻¹; at Cloned cathepsin S, 26,300,000 M^-1 sec^-1; on cruzain, from T. cruzi it was 213,000 M^-1 sec^-1. In addition, the kirr was 0.16 s⁻¹ on Cloned cathepsin S and 0.11 s⁻¹ at cruzain, from T. cruzi. Also, the Ki at Cloned cathepsin S is 5.9 nM; on cruzain, from T. cruzi it was 520 nM. Also, the IC50 in assay [2] turned out to be 3 nM. For the same compound, the “bone and cartilage destruction” value in the assay on Female Lewis rats (high dose) is “reduction in bone and cartilage destruction”.
Consider `O=C(N[C@H](/C=C/S(=O)(=O)c1ccccc1)CCc1ccccc1)C(Cc1ccccc1)NC(=O)N1CCOCC1` (stereo partly drawn) [Mu-Phe-HphVSPh, (S)-(E)-3-(4-morpholinecarbonyl-phenylalanyl)amino-5-phenyl-1-phenylsulfonyl-1-pentene], for which the kirr is 0.17 s⁻¹ in assay [1]; 0.061 s⁻¹ and 0.12 s⁻¹ in assay [1] (listed as Mu-Phe-Hph-VSPh); 0.085 s⁻¹ on Cloned cathepsin S; 0.15 s⁻¹ on Cloned cathepsin S (listed as Mu-Phe-Hph-VSPh); 0.43 s⁻¹ on cruzain, from T. cruzi. Further, the Ki worked out at 11000 nM in assay [1] (corrected for substrate); 11 nM at Cloned cathepsin S; 23 nM on Cloned cathepsin S (listed as Mu-Phe-Hph-VSPh); 3200 nM at cruzain, from T. cruzi. Besides, the “k/KI (kirr/KI)” value in assay [1] is 16,400 M^-1 sec^-1; on Cloned cathepsin S, 7,700,000 M^-1 sec^-1; at Cloned cathepsin S (listed as Mu-Phe-Hph-VSPh), 6,500,000 M^-1 sec^-1; on cruzain, from T. cruzi, 134,000 M^-1 sec^-1. The IC50 in assay [2] came out at 80 nM. The “effect on all scores (paw swelling, erythema, joint histopathology)” value in the assay on Female Lewis rats (3, 10, and 30 mg/kg/day in chow, 28 days) is on record as “dose dependent beneficial effect on all scores”.

Broadly, the Ki is a measure of affinity in units of concentration, obtained from inhibition or displacement. Lower therefore signals a stronger hold on the target. By IC50 is commonly meant the point on the concentration scale where inhibition reaches its midpoint.
